As usually defined, the IC50 is the concentration needed to halve the response being measured. Read a low IC50 as greater potency in that assay.

These results are taken from ChEMBL document CHEMBL5550218, “Structural Insights into Protein-Inhibitor Interactions in Human Tryptophan Dioxygenase” (J Med Chem, 2024).

The target in this experiment is Tryptophan 2,3-dioxygenase (Homo sapiens, UniProt P48775).
Chain of Tryptophan 2,3-dioxygenase (P48775 whole entry): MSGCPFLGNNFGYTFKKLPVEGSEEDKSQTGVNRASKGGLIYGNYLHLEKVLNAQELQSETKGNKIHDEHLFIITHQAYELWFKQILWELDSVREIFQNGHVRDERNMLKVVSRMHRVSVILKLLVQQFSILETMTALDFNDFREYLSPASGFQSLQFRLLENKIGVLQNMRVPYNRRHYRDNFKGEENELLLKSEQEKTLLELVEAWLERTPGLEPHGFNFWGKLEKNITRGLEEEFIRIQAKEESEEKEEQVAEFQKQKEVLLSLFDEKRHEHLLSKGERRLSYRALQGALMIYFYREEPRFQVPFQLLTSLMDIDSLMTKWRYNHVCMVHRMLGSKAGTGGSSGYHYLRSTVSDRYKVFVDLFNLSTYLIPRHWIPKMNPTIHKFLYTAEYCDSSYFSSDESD

`O=C1CC(c2c[nH]c3ccc(F)cc23)C(=O)N1` (stereo unspecified) [PF-06840003]: the concentration for half-maximal inhibition (IC50) is 424 µM.
